{"source": "patent US7723070B2", "about": "“Overexpression of aminoacyl-tRNA synthetases for efficient production of engineered proteins containing amino acid analogues” (California Institute of Technology, priority 2000, dated 2010)"}
{"tested_on": "B834(DE3) or CAG18491 hosts with pQE15/pREP4 or pQE15-MRS/pREP4", "experiment": "Translational activity: mDHFR synthesis, statements covering several bacterial hosts (with pQE15 or pQE15-MRS)", "type": "cell-based, E. coli", "conditions": "amino acids at 60 mg/liter, both bacterial hosts", "experimental": "Methionine analogues were synthesized via alkylation of diethylacetamidomalonate, as previously described (As described in Example I, infra; J. C. M. van Hest, D. A. Tirrell, FEBS Lett. 1998, 428, 68-70). Cultures of B834(DE3)/pQE15-MRS/pREP4 or B834(DE3)/pQE15/pREP4 or CAG18491/pQE15-MRS/pREP4 or CAG18491/pQE15/pREP4 in M9AA media were grown to an optical density of 0.90, and the cells were sedimented by centrifugation. The M9AA medium was prepared by supplementing sterile M9 medium with […] of each of the amino acids, 1 mM MgSO4, 0.2 wt % glucose, 1 mg/ml thiamine chloride, and […] calcium chloride. The antibiotics ampicillin and kanamycin were added at concentrations of 200 mg/l and 35 mg/l, respectively.\nCells were washed three times with M9 salts and resuspended to an optical density of 0.90 in M9 test media containing 19 amino acids plus 1) neither methionine nor analogue (negative control); 2) methionine (60 mg/liter, positive control); or 3) an analogue of interest (60 mg/liter). To test the effect of increasing the level of supplementation of the analogues, a set of experiments was also conducted in which the medium was supplemented with 500 mg/liter of methionine or the amino acid analogue. Expression of mDHFR was induced by addition of 0.4 mM isopropyl β-D-thiogalactopyranoside (IPTG), and protein synthesis was monitored after 4.5 hours."}
{"smiles": "C=CCOC[C@H](N)C(=O)O", "note": "(racemic) [Analogue 10, o-allylserine]", "target protein mDHFR in SDS-PAGE": "not observed"}
{"smiles": "NC(CCCC(F)(F)F)C(=O)O", "note": "(racemic) [Analogue 6, DL-6,6,6-trifluoro-2-amino hexanoic acid]", "target protein mDHFR in SDS-PAGE": "not observed"}
{"smiles": "C#CCC(N)C(=O)O", "note": "(stereo not drawn) [Analogue 13, propargylglycine]", "target protein mDHFR in SDS-PAGE": "not observed"}
